The values below come from patent publication US20220087263A1, “HERBICIDE COMPOSITION AND APPLICATION THEREOF” (SHENYANG SINOCHEM AGROCHEMICALS R&D CO., LTD., priority 2018, published 2022).

One test concerns barnyard grass. The test can be described thus: Greenhouse test of weed control effect, combined action evaluated by Gowing method. Type of test: in vivo. The note with it: single component. The procedure:
(§1) Embodiment 1 The synergistic effects of the compound contained with component A and component B is conducted in greenhouse in the present invention, and the component A takes A-3, A-4 and A-5 compounds in the compound table 1 of the general formula I as examples.
(§2) The synergistic effects of the composition on the weeds is defined through greenhouse test.
(§3) A weed culture method is: respectively planting weed seeds of piemarker and barnyard grass quantitatively in a paper cup with a diameter of 7 cm and containing nutrient soil; after planting, covering soil, pressing and watering; and then culturing in a greenhouse. The grass weeds grow to 5-7 leaf stages; the broadleaf weeds grow to 6-8 leaf stages; pre-emergence and post-emergence treatment are conducted with three times repeats. The weeds are placed in the greenhouse after treatment when the leaf without water dried naturally in air, and cultured with normal method. According to the inhibited condition or dying condition of the weeds, after treatment 30 days, visual inspection of the control effect is conducted (see Table 2-Table 7).
(§4) A herbicide formulation preparing method: all test samples are technical dissolved by a mixed solvent of acetone and dimethylformyl (1:2, V/V) firstly; then 1‰ of Tween 80 water is used to prepare mother liquor of a certain concentration; and then processing solutions of different doses are prepared according to test schemes.
(§5) The present invention adopts a Gowing method for evaluating the combined action of the proposed composition.
(§6) X—the weed control effect when the dosage of the component A of the herbicide is P;
(§7) Y—the weed control effect when the dosage of the component B of the herbicide is Q;
(§8) E0—the theoretical control effect when the dosage of the component A of the herbicide is P+the theoretical control effect when the dosage of the component B of the herbicide is Q;
(§9) E—the measured control effect after the component A of the herbicide and the component B of the herbicide are mixed in the above proportion.
(§10) When E−E0>10%, the synergy is achieved; when E−E0<−10%, antagonism is achieved; when the value of E−E0 is between ±10%, the addition effect is achieved.

A further test relates to piemarker. Described as above. Format: in vivo. The note with it: single component. On the procedure:
as §1, §2, §3, §4, §5, §6, §7, §8, §9, §10

The mark [1] stands for this setting: dose 7.5 ga.i./hm^2, visual inspection 30 days after treatment.
Where [2] appears, read: dose 30 ga.i./hm^2, visual inspection 30 days after treatment.
[3] abbreviates: dose 120 ga.i./hm^2, visual inspection 30 days after treatment.

Values joined by “and” are separate entries in the source; they are usually repeats but may differ in a detail not shown here. Identical values can stand only once.

As for `c1cc[n+]2c(c1)-c1cccc[n+]1CC2` [Diquat, diquat], the “Measured Value E (weed control effect)” value is 30% and 20% in the test with barnyard grass (setting [1]); 50% and 45% and 40% in the test on barnyard grass (setting [2]); 65% and 60% and 55% with barnyard grass (setting [3]); 20% and 15% and 30% in the test on piemarker (setting [1]); 50% and 55% and 45% with piemarker (setting [2]); 60% and 65% and 55% with piemarker (setting [3]).
